Experimental data reported in patent publication US6372297B1, “Wood preservative oxathiazines” (Uniroyal Chemical Company, Inc., priority 1993, dated 2002).

How the values were obtained:
Coniophora puteana = experiment: Wood preservative efficacy against fungi, agar plate colony diameter; assay type: cell-based; parameters: key: 0 = no fungal growth, 1-3 = 25/50/75% of untreated, 4 = equal; details: Test dosage 10 ppm, Table 6A
Procedure: (§1) Each plate was inoculated with a spore suspension or with a small piece of agar (1 mm) from the margin of an actively growing colony of the test fungus. The fungi employed are listed below. After incubation at 22° C. and 70% relative humidity during a period long enough to allow significant growth of untreated controls, the diameters of the fungus colonies were measured and scored using the following rating system: 0=free of fungal growth 1=25% of fungal growth compared to untreated 2=50% of fungal growth compared to untreated 3=75% of fungal growth compared to untreated 4=Growth equal to that of untreated The scores measured for wood preservation efficacy of the compounds of this invention are listed in Tables 6a and 6b. In these Tables, the lower numbers are the most preferred species. Coniophora puteana (syn. C. cerebella)

Pseudomonas aeruginosa = experiment: Wood preservative efficacy against bacteria and yeasts, tryptose agar plates; assay type: cell-based; parameters: key: 0 = growth equal to control, 1 = growth inhibited, 2 = no growth; details: 100 ppm in tryptose agar
Procedure, shortened: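 Compounds were dissolved in 50% ethanol, diluted with sterile water and tested against Pseudomonas aeruginosa inoculated on tryptose agar. Growth was scored against untreated control once the control had grown: 0 = equal growth, 1 = inhibition, 2 = no growth.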

Penicillium islandicum = experiment: Wood preservative efficacy against fungi, agar plate colony diameter; assay type: cell-based; parameters: key: 1 = 25%, 2 = 50%, 3 = 75%, 4 = 100% of untreated fungal growth; details: Test dosage 10 ppm, Table 6A
Procedure: The compounds shown in Table 1 were dissolved in 50% ethanol and then diluted with sterile water to give the required concentrations of 1 and 10 ppm in the test agar plates. Malt extract sugar (3%) was added aseptically and uniform distribution was obtained by shaking. Each plate was inoculated with a spore suspension or with a small piece of agar (1 mm) from the margin of an actively growing colony of the test fungus. The fungi employed are listed below. After incubation at 22° C. and 70% relative humidity during a period long enough to allow significant growth of untreated controls, the diameters of the fungus colonies were measured and scored using the following rating system:
1=25% of fungal growth compared to untreated
2=50% of fungal growth compared to untreated
3=75% of fungal growth compared to untreated
4=Growth equal to that of untreated
In these Tables, the lower numbers are the most preferred species.

Escherichia coli = experiment: Wood preservative efficacy against bacteria and yeasts, tryptose agar plates; assay type: cell-based; parameters: key: 0 = growth equal to control, 1 = growth inhibited, 2 = no growth; details: 100 ppm in tryptose agar
Procedure, shortened: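 Compounds were dissolved in 50% ethanol, diluted with sterile water and tested against inoculated bacterial cultures on agar. Growth was scored against untreated controls: 0 = growth equal to control, 1 = growth inhibited, 2 = no growth.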

Streptomyces albus = experiment: as above; assay type: cell-based; parameters: key: 0 = growth equal to control, 1 = inhibition, 2 = no growth; details: 100 ppm in tryptose agar
Procedure, shortened: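 Compounds in 50% ethanol diluted with sterile water, tested in tryptose agar inoculated with Streptomyces albus. Growth scored once untreated cultures grew: 0 = as control, 1 = inhibited, 2 = no growth.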

Chaetomium globosum = experiment: Wood preservative efficacy against fungi, agar plate colony diameter; assay type: cell-based; details: Test dosage 10 ppm, Table 6A
Procedure: as §1, with “Chaetomium globosum” for “Coniophora puteana (syn. C. cerebella)”

Aspergillus niger = experiment: Control of molds and blue stain fungi in stick test (beech sticks); details: minimum concentration producing a score less than or equal to 1; dosages 250-5000 ppm
Procedure: (§2) The compounds shown in Table 1 were dissolved in 50% ethanol and a dilution series was made using the same solvent. In 25 ml of each dilution, one oven-dried beech stick (73×18×2 mm) was drenched until saturated.
(§3) Test dosages were 50, 100, 250, 500, and 1000 ppm for blue stain fungi which were Aureobasidium pullulans and Sclerophoma pithyophila. Test dosages for the molds used (Trichoderma viride, Aspergillus niger) were 250, 500, 1000, 2500, and 5000 ppm.
(§4) After three hours the test solution was poured off and each stick was allowed to dry in a sterile laminar air flow. In each Petri dish one stick was placed on malt agar previously seeded with inoculum. Two drops of fungal or spore suspension were pipetted on the upper surface of the stick. The Petri dishes were then incubated at 22° C. and 90% relative humidity. The treated sticks were evaluated after sufficient growth of the fungus on the untreated control sticks. The following score system was used to rate the effectiveness of the compounds:
(§5) 0=stick free of fungal growth
(§6) 1=traces of fungal growth on stick
(§7) 2=slight fungal growth (5 to 25% of the surface covered)
(§8) 3=moderate fungal growth (25 to 50% of the surface covered)
(§9) 4=vigorous fungal growth (greater than 50% of the surface covered).
(§10) For purposes of comparison of these compounds, these values were converted to threshold ranges. The threshold value in this system is defined as the minimum concentration of a particular compound which produces a score less than or equal to 1.

Trichoderma viride = experiment: as above; details: minimum concentration producing a score less than or equal to 1; dosages 250-5000 ppm
Procedure: as §2, §3, §4, §5, §6, §7, §8, §9, §10

Sclerophoma pithyophila = experiment: as above; details: minimum concentration producing a score less than or equal to 1; dosages 50-1000 ppm
Procedure: as §2, §3, §4, §5, §6, §7, §8, §9, §10

Aureobasidium pullulans = experiment: as above; details: minimum concentration producing a score less than or equal to 1; dosages 50-1000 ppm
Procedure: as §2, §3, §4, §5, §6, §7, §8, §9, §10

Cladosporium resinae = experiment: Wood preservative efficacy against fungi, agar plate colony diameter; assay type: cell-based; details: Test dosage 10 ppm, Table 6A
Procedure: as §1, with “Cladosporium resinae (syn Hormonocanis resinae, Amorphotheca resinae)” for “Coniophora puteana (syn. C. cerebella)”

## C[S+]1CCON=C1c1ccc(Cl)cc1 (centres unmarked) [Compound 1]
Coniophora puteana
  Score of fungicidal activity, C. PUTEANA: 2 (50% of growth compared to untreated control)
Pseudomonas aeruginosa
  Score of bactericidal activity, P. aeruginosa: 0
Penicillium islandicum
  Score of fungicidal activity, P. ISLANDICUM: 0
Escherichia coli
  Score of bactericidal activity, E. Coli: 2
Streptomyces albus
  Score of bactericidal activity, S. albus: 2
Chaetomium globosum
  Score of fungicidal activity, C. GLOBOSUM: 0
Aspergillus niger
  Threshold value in stick test, A[…]: 1000-2500 ppm
Trichoderma viride
  Threshold value in stick test, TRICHODERMA VIRIDE: 2500-5000 ppm
Sclerophoma pithyophila
  Threshold value in stick test, SCLEROPHOMA PYTHIOPHILA: 100-250 ppm
Aureobasidium pullulans
  Threshold value in stick test, AUREOBASIDIUM PULLULANS: >1000 ppm
Cladosporium resinae
  Score of fungicidal activity, CL RESINAE: 2 (50% of growth compared to untreated control)
